Source: the NIST ThermoML archive (doi:10.1016/j.fluid.2018.09.024)
Numbers after ± are expanded uncertainties.

Assay: activity coefficient (dimensionless); of the first substance listed, at infinite dilution; xn = mol fraction of the nth substance listed
Details: 101.33 kPa, Liquid, Chromatography, x1 = 0

| SMILES | activity coefficient (328.15 K) | activity coefficient (338.15 K) | activity coefficient (348.15 K) | activity coefficient (358.15 K) | activity coefficient (368.15 K) | activity coefficient (378.15 K) | activity coefficient (318.15 K) |
| --- | --- | --- | --- | --- | --- | --- | --- |
| CC(C)OC(C)C [diisopropyl ether] + CCCCCCCCCCCC[N+](C)(C)CCOc1ccccc1.N#C[N-]C#N | 4.03 ± 0.27 | 4.12 ± 0.28 | 4.22 ± 0.29 | 4.29 ± 0.29 | 4.36 ± 0.3 | 4.43 ± 0.3 |  |
| CC(C)OC(C)C [diisopropyl ether] + CCCCCCCCCCCC[N+](C)(C)CCOc1ccccc1.O=S(=O)([N-]S(=O)(=O)C(F)(F)F)C(F)(F)F | 1.97 ± 0.13 | 2.03 ± 0.14 | 2.1 ± 0.14 | 2.16 ± 0.15 | 2.22 ± 0.15 |  | 1.9 ± 0.13 |
| CCCOCCC [dipropyl ether] + CCCCCCCCCCCC[N+](C)(C)CCOc1ccccc1.N#C[N-]C#N | 3.36 ± 0.23 | 3.46 ± 0.24 | 3.54 ± 0.24 | 3.61 ± 0.25 | 3.68 ± 0.25 | 3.76 ± 0.26 |  |
| CCCOCCC [dipropyl ether] + CCCCCCCCCCCC[N+](C)(C)CCOc1ccccc1.O=S(=O)([N-]S(=O)(=O)C(F)(F)F)C(F)(F)F | 1.85 ± 0.12 | 1.92 ± 0.13 | 1.99 ± 0.14 | 2.06 ± 0.14 | 2.13 ± 0.14 |  | 1.78 ± 0.12 |
| CCO [ethanol] + CCCCCCCCCCCC[N+](C)(C)CCOc1ccccc1.N#C[N-]C#N | 0.411 ± 0.034 | 0.421 ± 0.035 | 0.429 ± 0.035 | 0.438 ± 0.035 | 0.446 ± 0.036 | 0.453 ± 0.036 |  |
| CCO [ethanol] + CCCCCCCCCCCC[N+](C)(C)CCOc1ccccc1.O=S(=O)([N-]S(=O)(=O)C(F)(F)F)C(F)(F)F | 1.2 ± 0.08 | 1.16 ± 0.07 | 1.12 ± 0.07 | 1.09 ± 0.07 | 1.06 ± 0.07 |  | 1.24 ± 0.08 |
| CCOC(C)=O [ethyl acetate] + CCCCCCCCCCCC[N+](C)(C)CCOc1ccccc1.N#C[N-]C#N | 1.2 ± 0.08 | 1.24 ± 0.08 | 1.27 ± 0.08 | 1.31 ± 0.09 | 1.34 ± 0.09 | 1.37 ± 0.09 |  |
| CCOC(C)=O [ethyl acetate] + CCCCCCCCCCCC[N+](C)(C)CCOc1ccccc1.O=S(=O)([N-]S(=O)(=O)C(F)(F)F)C(F)(F)F | 0.533 ± 0.039 | 0.563 ± 0.04 | 0.592 ± 0.042 | 0.62 ± 0.043 | 0.648 ± 0.044 |  | 0.505 ± 0.038 |
| CCc1ccccc1 [ethylbenzene] + CCCCCCCCCCCC[N+](C)(C)CCOc1ccccc1.N#C[N-]C#N | 1.4 ± 0.09 | 1.45 ± 0.1 | 1.5 ± 0.1 | 1.55 ± 0.1 | 1.6 ± 0.11 | 1.64 ± 0.11 |  |
| CCc1ccccc1 [ethylbenzene] + CCCCCCCCCCCC[N+](C)(C)CCOc1ccccc1.O=S(=O)([N-]S(=O)(=O)C(F)(F)F)C(F)(F)F | 0.948 ± 0.06 | 0.995 ± 0.062 | 1.04 ± 0.07 | 1.09 ± 0.07 | 1.13 ± 0.07 |  | 0.9 ± 0.057 |
| CCCCCCC [heptane] + CCCCCCCCCCCC[N+](C)(C)CCOc1ccccc1.N#C[N-]C#N | 5.99 ± 0.41 | 6.08 ± 0.41 | 6.16 ± 0.42 | 6.24 ± 0.43 | 6.33 ± 0.43 | 6.41 ± 0.44 |  |
| CCCCCCC [heptane] + CCCCCCCCCCCC[N+](C)(C)CCOc1ccccc1.O=S(=O)([N-]S(=O)(=O)C(F)(F)F)C(F)(F)F | 3.52 ± 0.24 | 3.6 ± 0.25 | 3.68 ± 0.25 | 3.75 ± 0.26 | 3.83 ± 0.26 |  | 3.44 ± 0.23 |
| C=CCCCC [hex-1-ene] + CCCCCCCCCCCC[N+](C)(C)CCOc1ccccc1.N#C[N-]C#N | 3.59 ± 0.24 | 3.68 ± 0.25 | 3.76 ± 0.26 | 3.84 ± 0.26 | 3.9 ± 0.27 | 3.99 ± 0.27 |  |
| C=CCCCC [hex-1-ene] + CCCCCCCCCCCC[N+](C)(C)CCOc1ccccc1.O=S(=O)([N-]S(=O)(=O)C(F)(F)F)C(F)(F)F | 2.24 ± 0.15 | 2.28 ± 0.16 | 2.32 ± 0.16 | 2.36 ± 0.16 | 2.41 ± 0.16 |  | 2.19 ± 0.15 |
| CCCCCC [hexane] + CCCCCCCCCCCC[N+](C)(C)CCOc1ccccc1.N#C[N-]C#N | 5.12 ± 0.35 | 5.22 ± 0.36 | 5.3 ± 0.36 | 5.41 ± 0.37 | 5.53 ± 0.38 | 5.6 ± 0.38 |  |
| CCCCCC [hexane] + CCCCCCCCCCCC[N+](C)(C)CCOc1ccccc1.O=S(=O)([N-]S(=O)(=O)C(F)(F)F)C(F)(F)F | 2.99 ± 0.2 | 3.06 ± 0.21 | 3.15 ± 0.21 | 3.21 ± 0.22 | 3.28 ± 0.22 |  | 2.91 ± 0.2 |

| SMILES | activity coefficient (328.15 K) | activity coefficient (338.15 K) | activity coefficient (348.15 K) | activity coefficient (358.15 K) | activity coefficient (368.15 K) | activity coefficient (378.15 K) | activity coefficient (318.15 K) |
| --- | --- | --- | --- | --- | --- | --- | --- |
| CC(C)c1ccccc1 [isopropylbenzene] + CCCCCCCCCCCC[N+](C)(C)CCOc1ccccc1.N#C[N-]C#N | 1.82 ± 0.12 | 1.87 ± 0.13 | 1.94 ± 0.13 | 2 ± 0.14 | 2.05 ± 0.14 | 2.11 ± 0.14 |  |
| CC(C)c1ccccc1 [isopropylbenzene] + CCCCCCCCCCCC[N+](C)(C)CCOc1ccccc1.O=S(=O)([N-]S(=O)(=O)C(F)(F)F)C(F)(F)F | 1.19 ± 0.08 | 1.24 ± 0.08 | 1.29 ± 0.08 | 1.34 ± 0.09 | 1.39 ± 0.09 |  | 1.14 ± 0.07 |
| CO [methanol] + CCCCCCCCCCCC[N+](C)(C)CCOc1ccccc1.N#C[N-]C#N | 0.316 ± 0.031 | 0.324 ± 0.032 | 0.332 ± 0.032 | 0.339 ± 0.032 | 0.346 ± 0.032 | 0.353 ± 0.032 |  |
| CO [methanol] + CCCCCCCCCCCC[N+](C)(C)CCOc1ccccc1.O=S(=O)([N-]S(=O)(=O)C(F)(F)F)C(F)(F)F | 1.06 ± 0.07 | 1.04 ± 0.07 | 1.01 ± 0.06 | 0.982 ± 0.062 | 0.964 ± 0.061 |  | 1.1 ± 0.07 |
| CCCC(=O)OC [methyl butanoate] + CCCCCCCCCCCC[N+](C)(C)CCOc1ccccc1.N#C[N-]C#N | 1.29 ± 0.08 | 1.34 ± 0.09 | 1.38 ± 0.09 | 1.42 ± 0.09 | 1.46 ± 0.1 | 1.5 ± 0.1 |  |
| CCCC(=O)OC [methyl butanoate] + CCCCCCCCCCCC[N+](C)(C)CCOc1ccccc1.O=S(=O)([N-]S(=O)(=O)C(F)(F)F)C(F)(F)F | 0.601 ± 0.042 | 0.636 ± 0.044 | 0.672 ± 0.046 | 0.706 ± 0.047 | 0.741 ± 0.049 |  | 0.565 ± 0.041 |
| COC(C)=O [methyl ethanoate] + CCCCCCCCCCCC[N+](C)(C)CCOc1ccccc1.N#C[N-]C#N | 1.03 ± 0.06 | 1.06 ± 0.07 | 1.09 ± 0.07 | 1.12 ± 0.07 | 1.14 ± 0.07 | 1.17 ± 0.07 |  |
| COC(C)=O [methyl ethanoate] + CCCCCCCCCCCC[N+](C)(C)CCOc1ccccc1.O=S(=O)([N-]S(=O)(=O)C(F)(F)F)C(F)(F)F | 0.503 ± 0.038 | 0.534 ± 0.039 | 0.563 ± 0.04 | 0.595 ± 0.042 | 0.628 ± 0.043 |  | 0.474 ± 0.037 |
| CCC(=O)OC [methyl propanoate] + CCCCCCCCCCCC[N+](C)(C)CCOc1ccccc1.N#C[N-]C#N | 1.13 ± 0.07 | 1.16 ± 0.07 | 1.19 ± 0.08 | 1.22 ± 0.08 | 1.25 ± 0.08 | 1.28 ± 0.08 |  |
| CCC(=O)OC [methyl propanoate] + CCCCCCCCCCCC[N+](C)(C)CCOc1ccccc1.O=S(=O)([N-]S(=O)(=O)C(F)(F)F)C(F)(F)F | 0.53 ± 0.039 | 0.566 ± 0.041 | 0.599 ± 0.042 | 0.633 ± 0.044 | 0.669 ± 0.045 |  | 0.498 ± 0.038 |
| CC1CCCCC1 [methylcyclohexane] + CCCCCCCCCCCC[N+](C)(C)CCOc1ccccc1.N#C[N-]C#N | 3.67 ± 0.25 | 3.73 ± 0.25 | 3.78 ± 0.26 | 3.85 ± 0.26 | 3.9 ± 0.27 | 3.95 ± 0.27 |  |
| CC1CCCCC1 [methylcyclohexane] + CCCCCCCCCCCC[N+](C)(C)CCOc1ccccc1.O=S(=O)([N-]S(=O)(=O)C(F)(F)F)C(F)(F)F | 2.39 ± 0.16 | 2.43 ± 0.17 | 2.47 ± 0.17 | 2.51 ± 0.17 | 2.55 ± 0.17 |  | 2.35 ± 0.16 |
| CCCCCCCCC [nonane] + CCCCCCCCCCCC[N+](C)(C)CCOc1ccccc1.N#C[N-]C#N | 7.69 ± 0.52 | 7.83 ± 0.53 | 7.95 ± 0.54 | 8.08 ± 0.55 | 8.21 ± 0.56 | 8.34 ± 0.57 |  |
| CCCCCCCCC [nonane] + CCCCCCCCCCCC[N+](C)(C)CCOc1ccccc1.O=S(=O)([N-]S(=O)(=O)C(F)(F)F)C(F)(F)F | 4.87 ± 0.33 | 4.96 ± 0.34 | 5.03 ± 0.34 | 5.12 ± 0.35 | 5.18 ± 0.35 |  | 4.77 ± 0.33 |
| C=CCCCCCC [oct-1-ene] + CCCCCCCCCCCC[N+](C)(C)CCOc1ccccc1.N#C[N-]C#N | 4.87 ± 0.33 | 4.98 ± 0.34 | 5.09 ± 0.35 | 5.2 ± 0.35 | 5.29 ± 0.36 | 5.38 ± 0.37 |  |
